Assay results taken from ChEMBL document CHEMBL1201862, “PubChem BioAssay data set” (2004).
Activity calls are given as the source filed them.

Legend:
[1] = target: E3 ubiquitin-protein ligase Mdm2 (Homo sapiens, UniProt Q00987); assay: MDM2-luc reporter signal enhancers, multi-concentration potency testing, MDM2 ubiquitin-protein ligase inhibitor program, whole-cell format, luminescence detection, 384-well microplate (AID 1394); format: functional;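 note: MDM2 E3 inhibitors raise luminescence so EC50 is for signal enhancement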
[2] = tested on: Streptococcus sp. 'group A'; assay: Streptococcus pyogenes SK(-)GAS viability under kanamycin – luminescence, BacTiterGlo, confirmation, counter-screen for streptokinase expression inhibitor project, dose response (AID 1900); format: functional, organism-based
Streptokinase A = target: T1, Streptokinase A (Streptococcus pyogenes serotype M1, UniProt P10520); assay: viability-normalized secreted streptokinase activity reduction – plasminogen activation absorbance, OD405, dose response (AID 1914); format: functional, Streptococcus pyogenes M1 GAS;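 note: secreted streptokinase activity via plasminogen activation per viability signal from cell pellet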
T1 sequence (P10520 whole entry): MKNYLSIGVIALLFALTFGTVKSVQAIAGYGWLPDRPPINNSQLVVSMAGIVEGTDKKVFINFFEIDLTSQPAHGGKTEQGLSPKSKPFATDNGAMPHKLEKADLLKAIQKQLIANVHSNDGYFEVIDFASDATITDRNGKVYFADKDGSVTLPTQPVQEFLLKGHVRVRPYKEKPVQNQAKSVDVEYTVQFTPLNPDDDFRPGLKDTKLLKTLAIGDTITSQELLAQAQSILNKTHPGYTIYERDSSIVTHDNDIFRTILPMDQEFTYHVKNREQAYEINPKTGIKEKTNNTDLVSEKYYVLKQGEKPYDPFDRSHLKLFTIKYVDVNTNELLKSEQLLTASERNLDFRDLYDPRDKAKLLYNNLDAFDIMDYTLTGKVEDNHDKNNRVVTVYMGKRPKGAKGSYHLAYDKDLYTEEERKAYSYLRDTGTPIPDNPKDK

[3] = target: Heat shock protein HSP 90-alpha (Homo sapiens, UniProt P07900); assay: Luminescence-based dose response biochemical high throughput screening assay for inhibitors of the Heat Shock Protein 90 (HSP90). [Related pubchem assays: 1831 (Summary AID.), 1846 (Confirmation screen.), 1789 (Primary screen.)]
Streptococcus = assay: GAS UMAA2166 growth inhibition – luminescence, BacTiterGlo, counter-screen for streptokinase expression inhibitor project, dose response (AID 1915); format: functional, organism-based;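 note: potency for reduction of bacterial viability or growth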
Genome polyprotein [4] = target: Genome polyprotein (Hepatitis C virus, UniProt Q2Q167); assay: disruption of hepatitis C core self-association – biochemical, TR-FRET, dose response (AID 2159); design: species or system Hepacivirus hominis;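 note: blocks dimerization of HCV core protein measured by TR-FRET between tagged core106 pairs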
SUMO-activating enzyme [5] = target: T2, SUMO-activating enzyme (Homo sapiens, UniProt Q9UBT2); assay: blockers of UBC9-mediated SUMO conjugation – biochemical, AlphaScreen, SUMOylation inhibitor project, confirmation (AID 2018); format: functional
SUMO-activating enzyme [6] = target: T2, SUMO-activating enzyme; assay: blockers of SAE1/SAE2–UBC9 SUMO transfer – biochemical, HTRF, uHTS, primary screen (AID 2006); format: protein-complex assay
Genome polyprotein [7] = target: Genome polyprotein (dengue virus type 2, UniProt P29990); assay: flavivirus cap methylation enzyme inhibition – biochemical, confirmation dose response, primary screen (AID 588689); format: functional
[8] = target: Mitogen-activated protein kinase 10 (Homo sapiens, UniProt P53779); assay: Dose response biochemical screening assay for inhibitors of c-Jun N-Terminal Kinase 3 (JNK3). [Related pubchem assays: 746 ]
[9] = target: Sphingosine 1-phosphate receptor 2 (Homo sapiens, UniProt O95136); assay: Dose Response Cell Based Assay for Antagonists of the S1P2 Receptor. [Related pubchem assays: 856, 736 ]; format: functional
[10] = HPDE-C7 pancreatic duct cell viability loss – fluorescence, HTS (AID 430); format: functional, cell-based; details: Homo sapiens
[11] = viability loss of HPDE-C7K cells – cell-based, fluorescence, HTS, primary screen (AID 431); format: functional; details: Homo sapiens
HEK293 = assay: EBV LMP1 TES2 canonical NF-kB signalling blockers – cell-based, HEK293, luciferase, cherry-pick, dose response (AID 588343); format: functional; details: Homo sapiens
[12] = reduction of Shn3 3'UTR-driven luciferase in osteoblasts – cell-based, Clone20 osteoblasts, firefly luciferase, cherry-picked, dose response (AID 624132); format: functional;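 note: firefly luciferase luminescence from reporter carrying the Shn3 3'UTR in osteoblasts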
[13] = loss of viability in HepG2 cells – cell-based, CellTiter-Glo, cherry-picked, cytotoxicity control for Shn3 inhibitor project, dose response (AID 624134); format: functional
[14] = non-specific 3'UTR reporter inhibition in Clone20-Shn3RL – cell-based, Renilla luciferase, cherry-picked, counter-screen for Shn3 inhibitor project, dose response (AID 624133); format: functional
Galanin receptor type 3 = Galanin receptor type 3 (Homo sapiens, UniProt O60755); assay: Fluorescence-based cell-based primary high throughput dose response assay to identify antagonists of the Galanin Receptor 3 (GalR3).; format: functional
cells = format: functional, cell-based; details: HEK-CNG
[15] = target: T3, RNA-binding protein pos-1 (Caenorhabditis elegans, UniProt G5EF15); assay: disruptors of C. elegans POS-1 RNA interaction – biochemical, fluorescence polarization, dose response (AID 1964);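 note: purified POS-1 fused to maltose binding protein made in E. coli; potency of compounds blocking POS-1 binding to fluorescent RNA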
T3 sequence (G5EF15 whole entry): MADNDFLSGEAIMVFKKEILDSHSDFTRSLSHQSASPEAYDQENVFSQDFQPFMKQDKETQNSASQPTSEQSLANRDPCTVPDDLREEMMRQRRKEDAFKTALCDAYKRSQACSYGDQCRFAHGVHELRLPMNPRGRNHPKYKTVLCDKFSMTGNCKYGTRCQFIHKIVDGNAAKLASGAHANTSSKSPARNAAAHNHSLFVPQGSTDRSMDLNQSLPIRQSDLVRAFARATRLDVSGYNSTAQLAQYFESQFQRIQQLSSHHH

Bcl-2-like protein 10 = target: T4, Bcl-2-like protein 10 (Homo sapiens, UniProt Q9HD36); assay: Bcl-B/TR3 peptide binding disruption – biochemical, fluorescence polarization, FITC-TR3 peptide, selectivity assay for Bfl-1 inhibitor project, primary screen (AID 748);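 note: fluorescence polarization from a fluorescein-labelled TR3 peptide binding purified Bcl-B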
T4 sequence (Q9HD36 whole entry): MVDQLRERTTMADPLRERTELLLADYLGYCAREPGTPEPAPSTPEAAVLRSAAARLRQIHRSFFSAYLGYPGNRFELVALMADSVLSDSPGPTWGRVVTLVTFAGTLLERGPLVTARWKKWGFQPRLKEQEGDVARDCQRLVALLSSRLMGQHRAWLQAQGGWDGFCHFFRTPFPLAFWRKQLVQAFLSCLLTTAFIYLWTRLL

[16] = target: T5, Zinc finger protein mex-5 (Caenorhabditis elegans, UniProt Q9XUB2); assay: potency of MEX-5 RNA-binding blockers – biochemical, C. elegans, fluorescence polarization, dose response (AID 1960)
T5 sequence (Q9XUB2 whole entry): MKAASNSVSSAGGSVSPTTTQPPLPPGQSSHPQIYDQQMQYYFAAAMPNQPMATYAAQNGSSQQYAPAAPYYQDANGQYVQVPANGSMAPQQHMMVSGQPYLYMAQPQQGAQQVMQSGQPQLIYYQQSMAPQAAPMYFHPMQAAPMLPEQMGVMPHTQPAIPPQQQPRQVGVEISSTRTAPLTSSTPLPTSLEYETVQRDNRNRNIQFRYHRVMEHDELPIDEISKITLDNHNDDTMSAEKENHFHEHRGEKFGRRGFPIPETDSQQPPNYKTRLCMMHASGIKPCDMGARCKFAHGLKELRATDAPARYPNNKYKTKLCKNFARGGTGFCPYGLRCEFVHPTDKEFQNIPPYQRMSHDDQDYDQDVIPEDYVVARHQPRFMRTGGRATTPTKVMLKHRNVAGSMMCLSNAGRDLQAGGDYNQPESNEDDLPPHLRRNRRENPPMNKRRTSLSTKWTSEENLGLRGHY

Estrogen receptor beta = Estrogen receptor beta (Homo sapiens, UniProt Q92731); assay: blockers of SRC-3 recruitment to ERβ – biochemical, ELISA, streptavidin-HRP readout, orthogonal assay, confirmation (AID 1060)
[17] = target: Bifunctional protein GlmU (Mycobacterium tuberculosis, UniProt P9WMN3); assay: Inhibitors of Mycobacterial Glucosamine-1-phosphate acetyl transferase (GlmU). Secondary screen.; design: species or system Mycobacterium tuberculosis H37Rv
[18] = target: T6, Dual specificity protein phosphatase 6 (Rattus norvegicus, UniProt Q64346); assay: inhibition of rat DUSP6 enzyme activity – biochemical, in vitro, primary screen (AID 425)
T6 sequence (Q64346 whole entry): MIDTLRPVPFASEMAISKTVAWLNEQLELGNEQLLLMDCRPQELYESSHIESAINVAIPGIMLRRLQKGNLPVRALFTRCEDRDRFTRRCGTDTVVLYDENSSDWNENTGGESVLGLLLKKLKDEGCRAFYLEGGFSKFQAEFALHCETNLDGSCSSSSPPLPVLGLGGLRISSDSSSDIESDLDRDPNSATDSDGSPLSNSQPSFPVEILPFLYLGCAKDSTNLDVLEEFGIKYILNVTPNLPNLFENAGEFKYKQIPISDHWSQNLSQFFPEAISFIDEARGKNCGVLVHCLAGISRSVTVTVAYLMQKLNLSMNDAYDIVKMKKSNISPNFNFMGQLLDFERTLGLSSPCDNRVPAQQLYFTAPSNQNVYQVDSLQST

[19] = target: T7, Carboxy-terminal domain RNA polymerase II polypeptide A small phosphatase 1 (Homo sapiens, UniProt Q9GZU7); assay: CTDSP1 inhibitors, concentration-response, biochemical, absorbance readout, ultra-high-throughput screen actives (AID 540297); format: functional
T7 sequence (Q9GZU7 whole entry): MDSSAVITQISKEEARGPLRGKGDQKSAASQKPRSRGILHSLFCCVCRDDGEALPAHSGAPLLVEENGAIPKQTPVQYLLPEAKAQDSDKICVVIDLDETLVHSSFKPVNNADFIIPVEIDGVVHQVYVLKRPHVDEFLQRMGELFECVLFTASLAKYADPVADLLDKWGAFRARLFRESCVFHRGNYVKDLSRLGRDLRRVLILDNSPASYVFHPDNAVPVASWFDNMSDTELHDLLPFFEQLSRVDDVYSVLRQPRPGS

[20] = target: T8, Histone-lysine N-methyltransferase NSD2 (Homo sapiens, UniProt O96028); format: biochemical
T8 sequence (O96028 whole entry): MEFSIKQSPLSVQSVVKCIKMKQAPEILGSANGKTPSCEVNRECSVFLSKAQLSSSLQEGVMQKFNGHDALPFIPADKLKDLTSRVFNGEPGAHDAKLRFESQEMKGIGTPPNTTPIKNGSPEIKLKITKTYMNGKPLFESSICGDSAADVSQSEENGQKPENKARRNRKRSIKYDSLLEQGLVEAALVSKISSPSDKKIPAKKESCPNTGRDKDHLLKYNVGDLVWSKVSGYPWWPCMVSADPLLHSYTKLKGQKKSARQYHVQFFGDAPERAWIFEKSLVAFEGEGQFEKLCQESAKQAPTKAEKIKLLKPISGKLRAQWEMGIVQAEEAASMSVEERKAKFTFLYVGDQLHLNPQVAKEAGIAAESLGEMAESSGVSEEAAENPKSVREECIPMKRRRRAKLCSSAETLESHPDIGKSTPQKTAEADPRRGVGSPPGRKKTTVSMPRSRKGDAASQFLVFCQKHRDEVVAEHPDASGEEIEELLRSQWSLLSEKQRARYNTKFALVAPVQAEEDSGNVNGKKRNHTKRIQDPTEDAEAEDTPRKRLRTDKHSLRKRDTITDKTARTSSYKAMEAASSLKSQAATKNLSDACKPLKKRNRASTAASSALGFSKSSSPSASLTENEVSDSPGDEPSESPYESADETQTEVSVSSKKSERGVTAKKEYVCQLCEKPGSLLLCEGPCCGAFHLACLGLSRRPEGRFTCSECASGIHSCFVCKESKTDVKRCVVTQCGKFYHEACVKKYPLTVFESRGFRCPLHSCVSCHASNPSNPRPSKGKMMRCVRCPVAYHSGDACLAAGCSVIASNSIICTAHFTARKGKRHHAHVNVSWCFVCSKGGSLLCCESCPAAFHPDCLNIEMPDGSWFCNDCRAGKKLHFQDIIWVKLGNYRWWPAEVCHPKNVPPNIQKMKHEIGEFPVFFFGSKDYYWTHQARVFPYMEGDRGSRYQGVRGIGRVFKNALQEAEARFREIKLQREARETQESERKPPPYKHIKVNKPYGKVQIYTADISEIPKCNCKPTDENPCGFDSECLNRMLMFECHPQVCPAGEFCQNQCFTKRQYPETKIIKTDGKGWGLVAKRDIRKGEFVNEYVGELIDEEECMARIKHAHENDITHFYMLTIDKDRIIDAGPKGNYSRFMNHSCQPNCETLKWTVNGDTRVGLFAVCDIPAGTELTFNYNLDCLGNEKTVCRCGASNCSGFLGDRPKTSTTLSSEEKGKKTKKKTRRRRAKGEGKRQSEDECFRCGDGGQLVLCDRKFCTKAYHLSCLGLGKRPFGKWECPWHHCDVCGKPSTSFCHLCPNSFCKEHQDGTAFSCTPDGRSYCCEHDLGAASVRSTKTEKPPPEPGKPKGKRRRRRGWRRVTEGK

T2 sequence (Q9UBE0 whole entry): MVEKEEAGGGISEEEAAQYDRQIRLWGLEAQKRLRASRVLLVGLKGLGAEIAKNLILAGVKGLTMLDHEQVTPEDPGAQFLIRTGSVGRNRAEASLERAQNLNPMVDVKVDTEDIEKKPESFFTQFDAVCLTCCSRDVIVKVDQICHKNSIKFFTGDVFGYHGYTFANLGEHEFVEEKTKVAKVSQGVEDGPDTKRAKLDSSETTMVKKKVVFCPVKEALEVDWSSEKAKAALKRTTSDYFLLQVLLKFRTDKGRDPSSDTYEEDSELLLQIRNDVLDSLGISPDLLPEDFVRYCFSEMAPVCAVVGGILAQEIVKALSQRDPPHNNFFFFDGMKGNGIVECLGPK
T2 sequence (Q9UBT2 whole entry): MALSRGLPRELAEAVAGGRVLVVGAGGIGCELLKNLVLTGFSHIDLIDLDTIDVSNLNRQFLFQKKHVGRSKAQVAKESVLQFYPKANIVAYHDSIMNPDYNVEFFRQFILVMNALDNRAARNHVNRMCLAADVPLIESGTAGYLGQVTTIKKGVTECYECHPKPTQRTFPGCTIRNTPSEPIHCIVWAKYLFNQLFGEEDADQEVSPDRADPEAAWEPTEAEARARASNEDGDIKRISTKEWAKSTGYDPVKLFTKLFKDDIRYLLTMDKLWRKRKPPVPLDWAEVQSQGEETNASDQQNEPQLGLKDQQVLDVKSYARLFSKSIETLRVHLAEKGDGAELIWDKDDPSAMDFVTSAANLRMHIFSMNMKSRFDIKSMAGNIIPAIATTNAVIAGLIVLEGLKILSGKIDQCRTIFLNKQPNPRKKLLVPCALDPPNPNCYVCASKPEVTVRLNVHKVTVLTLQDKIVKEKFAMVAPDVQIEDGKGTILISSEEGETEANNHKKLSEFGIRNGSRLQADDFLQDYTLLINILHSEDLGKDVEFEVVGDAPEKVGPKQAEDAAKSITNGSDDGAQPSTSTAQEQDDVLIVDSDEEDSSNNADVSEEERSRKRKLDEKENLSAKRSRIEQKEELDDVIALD
Chain of Bifunctional protein GlmU (P9WMN3 whole entry): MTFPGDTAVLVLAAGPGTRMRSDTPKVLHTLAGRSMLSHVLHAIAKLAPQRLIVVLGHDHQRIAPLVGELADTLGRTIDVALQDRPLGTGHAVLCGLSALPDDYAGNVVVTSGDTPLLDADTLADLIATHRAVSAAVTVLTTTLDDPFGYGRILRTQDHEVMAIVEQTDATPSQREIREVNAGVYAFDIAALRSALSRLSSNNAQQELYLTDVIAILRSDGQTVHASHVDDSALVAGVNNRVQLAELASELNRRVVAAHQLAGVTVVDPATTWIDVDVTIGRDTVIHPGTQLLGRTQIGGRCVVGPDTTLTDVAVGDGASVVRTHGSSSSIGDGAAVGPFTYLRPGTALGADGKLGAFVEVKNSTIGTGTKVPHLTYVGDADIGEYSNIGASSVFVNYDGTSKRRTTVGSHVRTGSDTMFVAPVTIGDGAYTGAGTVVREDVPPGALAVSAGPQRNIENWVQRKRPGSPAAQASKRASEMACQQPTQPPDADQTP
Chain of Sphingosine 1-phosphate receptor 2 (O95136 whole entry): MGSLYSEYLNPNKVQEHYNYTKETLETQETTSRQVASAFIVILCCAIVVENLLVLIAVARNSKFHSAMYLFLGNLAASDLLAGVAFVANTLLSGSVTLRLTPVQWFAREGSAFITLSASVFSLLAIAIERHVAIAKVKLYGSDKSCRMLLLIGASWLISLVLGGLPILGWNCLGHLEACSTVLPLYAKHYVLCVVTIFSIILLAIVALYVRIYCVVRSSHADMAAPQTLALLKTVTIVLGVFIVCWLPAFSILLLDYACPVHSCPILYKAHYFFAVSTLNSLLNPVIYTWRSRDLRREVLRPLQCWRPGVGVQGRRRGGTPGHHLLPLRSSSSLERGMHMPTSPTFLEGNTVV
Chain of Estrogen receptor beta (Q92731 whole entry): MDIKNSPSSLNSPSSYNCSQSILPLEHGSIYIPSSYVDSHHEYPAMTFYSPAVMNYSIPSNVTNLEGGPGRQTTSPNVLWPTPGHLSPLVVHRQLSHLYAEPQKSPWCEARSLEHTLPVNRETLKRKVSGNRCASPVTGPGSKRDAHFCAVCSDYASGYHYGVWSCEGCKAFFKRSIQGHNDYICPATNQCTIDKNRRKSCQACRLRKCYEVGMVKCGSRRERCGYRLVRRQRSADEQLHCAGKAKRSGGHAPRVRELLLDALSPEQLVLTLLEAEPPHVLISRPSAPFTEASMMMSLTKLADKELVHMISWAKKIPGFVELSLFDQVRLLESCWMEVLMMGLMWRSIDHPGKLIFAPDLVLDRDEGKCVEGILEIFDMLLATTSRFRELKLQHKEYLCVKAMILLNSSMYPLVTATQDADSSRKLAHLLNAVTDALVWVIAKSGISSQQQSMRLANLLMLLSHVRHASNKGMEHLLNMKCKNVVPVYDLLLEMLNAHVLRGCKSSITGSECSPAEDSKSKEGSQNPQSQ
Chain of Mitogen-activated protein kinase 10 (P53779 whole entry): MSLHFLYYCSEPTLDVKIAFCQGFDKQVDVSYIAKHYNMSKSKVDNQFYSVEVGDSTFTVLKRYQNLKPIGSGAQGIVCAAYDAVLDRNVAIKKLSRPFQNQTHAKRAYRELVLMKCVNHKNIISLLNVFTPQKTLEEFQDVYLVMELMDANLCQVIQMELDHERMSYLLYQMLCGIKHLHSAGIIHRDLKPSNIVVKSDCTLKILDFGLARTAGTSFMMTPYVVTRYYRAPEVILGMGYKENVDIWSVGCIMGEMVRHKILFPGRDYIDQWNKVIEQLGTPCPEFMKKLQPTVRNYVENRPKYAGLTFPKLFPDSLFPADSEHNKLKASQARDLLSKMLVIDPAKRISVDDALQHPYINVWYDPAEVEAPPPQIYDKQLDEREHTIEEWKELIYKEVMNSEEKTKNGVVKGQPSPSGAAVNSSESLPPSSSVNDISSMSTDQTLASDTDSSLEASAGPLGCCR
Chain of Genome polyprotein (Hepatitis C virus, UniProt Q2Q167) (Q2Q167 whole entry): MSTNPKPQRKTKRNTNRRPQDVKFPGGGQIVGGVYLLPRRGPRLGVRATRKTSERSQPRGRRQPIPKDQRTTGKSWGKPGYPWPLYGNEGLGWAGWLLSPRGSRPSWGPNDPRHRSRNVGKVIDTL
Chain of Galanin receptor type 3 (O60755 whole entry): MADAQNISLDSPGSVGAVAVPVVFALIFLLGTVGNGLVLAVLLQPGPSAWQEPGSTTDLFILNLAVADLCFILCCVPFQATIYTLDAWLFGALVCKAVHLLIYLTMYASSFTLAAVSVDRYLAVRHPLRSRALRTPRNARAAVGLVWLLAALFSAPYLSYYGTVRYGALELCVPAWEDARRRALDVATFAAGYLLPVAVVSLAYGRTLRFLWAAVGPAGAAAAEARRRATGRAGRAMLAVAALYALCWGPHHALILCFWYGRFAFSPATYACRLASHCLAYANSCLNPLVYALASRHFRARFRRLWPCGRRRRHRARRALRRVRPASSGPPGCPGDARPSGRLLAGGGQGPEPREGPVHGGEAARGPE
Chain of Genome polyprotein (dengue virus type 2, UniProt P29990) (P29990 2492-3391 limits assumed): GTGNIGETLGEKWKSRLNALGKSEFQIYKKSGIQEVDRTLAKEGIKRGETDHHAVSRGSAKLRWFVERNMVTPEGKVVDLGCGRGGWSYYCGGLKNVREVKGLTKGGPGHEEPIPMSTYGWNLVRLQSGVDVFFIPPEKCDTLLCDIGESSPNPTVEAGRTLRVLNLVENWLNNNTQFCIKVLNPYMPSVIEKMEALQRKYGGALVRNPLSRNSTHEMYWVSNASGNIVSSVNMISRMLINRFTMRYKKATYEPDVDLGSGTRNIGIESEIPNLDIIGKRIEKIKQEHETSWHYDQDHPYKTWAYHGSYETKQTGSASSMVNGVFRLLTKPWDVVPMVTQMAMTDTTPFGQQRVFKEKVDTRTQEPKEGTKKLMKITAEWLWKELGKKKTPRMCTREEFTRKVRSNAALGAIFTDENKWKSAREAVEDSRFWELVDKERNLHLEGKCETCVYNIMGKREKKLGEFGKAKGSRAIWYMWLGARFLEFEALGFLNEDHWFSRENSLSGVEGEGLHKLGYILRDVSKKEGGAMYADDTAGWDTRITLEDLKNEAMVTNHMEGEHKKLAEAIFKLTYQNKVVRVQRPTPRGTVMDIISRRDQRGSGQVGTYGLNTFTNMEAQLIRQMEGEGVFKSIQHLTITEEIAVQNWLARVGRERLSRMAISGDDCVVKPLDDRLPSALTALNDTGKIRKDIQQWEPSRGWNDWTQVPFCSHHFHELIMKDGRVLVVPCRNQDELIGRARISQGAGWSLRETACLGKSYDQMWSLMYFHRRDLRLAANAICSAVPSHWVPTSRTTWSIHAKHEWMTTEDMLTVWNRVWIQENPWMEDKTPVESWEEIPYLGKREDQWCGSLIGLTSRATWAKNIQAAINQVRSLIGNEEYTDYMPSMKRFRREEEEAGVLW
Chain of E3 ubiquitin-protein ligase Mdm2 (Q00987 whole entry): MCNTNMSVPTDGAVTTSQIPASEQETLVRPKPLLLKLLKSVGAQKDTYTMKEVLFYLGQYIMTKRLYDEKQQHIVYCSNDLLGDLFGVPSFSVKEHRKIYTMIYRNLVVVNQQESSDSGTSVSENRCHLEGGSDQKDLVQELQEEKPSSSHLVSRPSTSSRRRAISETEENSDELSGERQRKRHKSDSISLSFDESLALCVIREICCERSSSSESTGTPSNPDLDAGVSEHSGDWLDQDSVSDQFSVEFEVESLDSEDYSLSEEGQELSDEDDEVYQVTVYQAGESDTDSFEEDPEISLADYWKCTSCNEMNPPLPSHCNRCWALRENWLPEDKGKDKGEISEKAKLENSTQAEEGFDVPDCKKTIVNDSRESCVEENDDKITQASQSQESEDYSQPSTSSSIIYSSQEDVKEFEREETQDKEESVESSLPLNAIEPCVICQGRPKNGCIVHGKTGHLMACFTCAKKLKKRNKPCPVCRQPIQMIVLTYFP

Cc1ccc(NC(=O)CCC2CC(C)(C)OC2=O)cc1 (centres undefined)
EC50 [1]: 777 µM (not active)

CCOC(=O)c1csc(NC(=O)c2ccc3c(c2)OCCO3)n1
EC50 [2]: > 150 µM (not active) | EC50 (Streptokinase A): > 150 µM (not active) | IC50 [3]: 1.23 µM (active) | EC50 (Streptococcus): > 150 µM (not active)

COc1cc(/C=C2\C(=O)N(c3ccccc3)N=C2C)ccc1Oc1ccc([N+](=O)[O-])cc1[N+](=O)[O-]
IC50 (Genome polyprotein [4]): > 49.8 µM (not active) | IC50 (SUMO-activating enzyme [5]): 5.91 µM (active) | IC50 (SUMO-activating enzyme [6]): 24.5 µM (active) | IC50 (Genome polyprotein [7]): 58 µM (active)

COc1cc(CC(=O)Nc2sccc2C(N)=O)cc(OC)c1OC
IC50 [8]: 5.94 µM (active)

CCC(NC(=O)Nc1nnc(C(F)(F)F)s1)(C(F)(F)F)C(F)(F)F
IC50 [9]: 4.77 µM (active) | EC50 [2]: 1.4 µM (active) | EC50 [10]: 2.79 µM (active) | EC50 [11]: 3.15 µM (active) | EC50 (Streptococcus): 3.27 µM (active) | AC50 (HEK293): 7.24 µM (active) | AC50 [12]: 4.15 µM (active) | AC50 [13]: 6.87 µM (active) | AC50 [14]: 4.23 µM (active) | IC50 (Galanin receptor type 3): > 3.32 µM (active) | EC50 (cells): > 29.9 µM (inactive)

O=C(O)c1cccc(-n2cccc2/C=N/O)c1
EC50 [15]: > 300 µM (not active) | IC50 (Bcl-2-like protein 10): 18.3 µM (active) | EC50 [16]: > 300 µM (not active) | IC50 (Estrogen receptor beta): < 0.023 µM (not active) | IC50 [17]: 91.6 µM (active) | IC50 [18]: > 10 µM (not active) | IC50 [19]: 3.09 µM (active) | AC50 [20]: 12.2 µM (active)
